Each structure is given as a SMILES string.

The target in the experiment is T1, human renin (Homo sapiens, UniProt P00797).
T1 sequence (P00797 67-406): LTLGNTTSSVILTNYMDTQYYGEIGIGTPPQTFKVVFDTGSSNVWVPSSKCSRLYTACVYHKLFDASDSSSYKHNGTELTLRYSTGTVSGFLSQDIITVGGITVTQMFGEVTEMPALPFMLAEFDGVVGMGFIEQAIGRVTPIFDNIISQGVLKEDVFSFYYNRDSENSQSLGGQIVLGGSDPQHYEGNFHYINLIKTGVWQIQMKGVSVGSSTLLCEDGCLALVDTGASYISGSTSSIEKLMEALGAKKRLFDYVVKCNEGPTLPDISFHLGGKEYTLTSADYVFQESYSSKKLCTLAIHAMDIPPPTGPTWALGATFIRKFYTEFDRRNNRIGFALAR
Briefly: In vitro Test With Pure Human Renin. In kind it is biochemical. To be noted: human tetradecapeptide substrate, pH 7.4, 3 h at 37° C., angiotensin I by RIA. The protocol: The tests can be carried out in analogy to those described by D. T. Pals et al. in Hypertension Vol. 8, 1105-1112 (1986) or J. Boger et al. in J. Med. Chem. 28, 1779-1790 (1985) or […] et al. in J. Med. Chem. 30, 2137-2144 (1987) or T. Kokubu et al. in Biochem. Biophys. Res. Commun. 118, 929-993 (1984): In vitro Test With Pure Human Renin The test is carried out in Eppendorf test tubes. The incubation mixture consists of (1) 100 μl of human renin in buffer A (0.1 M sodium phosphate solution, pH 7.4, containing 0.1% bovine serum albumin, 0.1% sodium aside and 1 mM ethylenediaminetetraacetic acid), sufficient for a renin activity of 2-3 ng of angiotensin I/ml/hr.; (2) 145 μl of buffer A: (3) 30 μl of 10 mM human tetradecapeptide renin substrate (hTD) in 10 mM hydrochloric acid: (4) 15 μl of dimethyl sulphoxide with or without inhibitor and (5) 10 μl of a 0.03 molar solution of hydroxyquinoline sulphate in water. The samples are incubated for three hours at 37° C. and, respectively, 4° C. in triplicate. 2×100 μl samples per test tube are used in order to measure the production of angiotensin I via RIA (standard radioimmunoassay; clinical assay solid phase kit). Cross reactivities of the antibody used in the RIA are: angiotensin I 100%; angiotensin II 0.0013%; hTD (angiotensin […]-OH) 0.09%. The production of angiotensin I is determined by the difference between the test at 37° C. and that at 4° C. The following controls are carried out: (a) Incubation of hTD samples without renin and without inhibitor at 37° C. and 4° C. The difference between these two values gives the base value of the angiotensin I production. (b) Incubation of hTD samples with renin, but without inhibitor at 37° C. and 4° C. The difference between these values gives the maximum value of the angiotensin I production. In each sample the base value of the angiotensin I production is subtracted from the angiotensin I production which is determined. […] The IC50 values are determined from a linear regression curve from a logit-log plot.
The term IC50 denotes the point on the concentration scale where inhibition reaches its midpoint. Read a high IC50 as a need for much substance. `COC(=O)CCN1CCCc2ccc(COC3CNCC[C@@H]3c3ccc(OCCCOCc4ccccc4OC)cc3)cc21` (mixture of isomers) [E, (3RS,4R)-3-[7-(4-[4-[3-(2-methoxy-benzyloxy)-propoxy]-phenyl]-piperidin-3-yloxymethyl)-3,4-dihydro-2H-quinolin-1-yl]-propionic acid methyl ester] returned a 50% inhibitory concentration (IC50) of 40 pM.

Molecule `COc1ccccc1COCCCOc1ccc([C@H]2CCNC[C@@H]2OCc2ccc3c(c2)N(CCNC(C)=O)CCC3)cc1` [A, (3R,4R)-N-[2-[7-[4-[4-[3-(2-methoxy-benzyloxy)-propoxy]-phenyl]-piperidin-3-yloxymethyl]-3,4-dihydro-2H-quinolin-1-yl]-ethyl]-acetamide] displayed a half-maximal inhibitory concentration (IC50) of 50 pM. Regarding `CCOC(=O)CN1CCCc2ccc(CO[C@H]3CNCC[C@@H]3c3ccc(OCCCOCc4ccccc4OC)cc3)cc21` [B, (3R,4R)-[7-(4-[4-[3-(2-methoxy-benzyloxy)-propoxy]-phenyl]-piperidin-3-yloxymethyl)-3,4-dihydro-2H-quinolin-1-yl]-acetic acid ethyl ester], the IC50 was 50 pM. This lies in the picomolar range. With `COc1ccccc1COCCCOc1ccc([C@H]2CCNC[C@@H]2OCc2ccc3c(c2)N(CCCO)CCC3)cc1` [C, (3R,4R)-3-[7-[4-[4-[3-(2-methoxy-benzyloxy)-propoxy]-phenyl]-piperidin-3-yloxymethyl]-3,4-dihydro-2H-quinolin-1-yl]-propan-1-ol] the figure was 80 pM; with `COc1ccccc1COCCCOc1ccc([C@H]2CCNC[C@@H]2OCc2ccc3c(c2)N(CCNS(N)(=O)=O)CCC3)cc1` [Compound I, (3R,4R)-N-[2-[7-[4-[4-[3-(2-methoxy-benzyloxy)-propoxy]-phenyl]-piperidin-3-yloxymethyl]-3,4-dihydro-2H-quinolin-1-yl]-ethyl]-sulfamide], 60 pM. In the case of `COC(=O)CN1CCCc2ccc(CO[C@H]3CNCC[C@@H]3c3ccc(OCCCOCc4ccccc4OC)cc3)cc21` [D, (3R,4R)-[7-(4-[4-[3-(2-methoxy-benzyloxy)-propoxy]-phenyl]-piperidin-3-yloxymethyl)-3,4-dihydro-2H-quinolin-1-yl]-acetic acid methyl ester] it was 20 pM; in that of `COCCCN1CCCc2ccc(CO[C@H]3CNCC[C@@H]3c3ccc(OCCCOCc4ccccc4OC)cc3)cc21` [F, (3R,4R)-7-[4-[4-[3-(2-methoxy-benzyloxy)-propoxy]-phenyl]-piperidin-3-yloxymethyl)-1-(3-methoxy-propyl]-1,2,3,4-tetrahydro-quinoline], 50 pM; in that of `COc1ccccc1COCCCOc1ccc([C@H]2CCNC[C@@H]2OCc2ccc3c(c2)N(CC#N)CCC3)cc1` [G, (3R,4R)-[7-(4-[4-[3-(2-methoxy-benzyloxy)-propoxy]-phenyl]-piperidin-3-yloxymethyl)-3,4-dihydro-2H-quinolin-1-yl]-acetonitrile], 70 pM. With `COc1ccccc1COCCCOc1ccc([C@H]2CCNC[C@@H]2OCc2ccc3c(c2)N(CCNS(C)(=O)=O)CCC3)cc1` [H, (3R,4R)-N-[2-[7-[4-[4-[3-(2-methoxy-benzyloxy)-propoxy]-phenyl]-piperidin-3-yloxymethyl]-3,4-dihydro-2H-quinolin-1-yl]-ethyl]-methanesulfonamide] the figure was 70 pM.

Regarding `COc1ccccc1COCCCOc1ccc([C@H]2CCNC[C@@H]2OCc2ccc3c(c2)N(CCNC(N)=O)CCC3)cc1` [J], it took 90 pM to reach half-maximal inhibition (IC50). The IC50 values of the last two molecules are within 1.5-fold of each other. `COc1ccccc1COCCCOc1ccc([C@H]2CCNC[C@@H]2OCc2ccc3c(c2)N(CCNC(=O)C(F)(F)F)CCC3)cc1` [K, (3R,4R)-2,2,2-trifluoro-N-[2-[7-[4-[4-[3-(2-methoxy-benzyloxy)-propoxy]-phenyl]-piperidin-3-yloxymethyl]-3,4-dihydro-2H-quinolin-1-yl]-ethyl]-acetamide]: inhibition was half-maximal at 50 pM (IC50).
